Results as given in patent publication US10047076B2, “Halogen-substituted compounds” (BAYER CROPSCIENCE AKTIENGESELLSCHAFT, priority 2014, dated 2018).

Columns and labels:
[1] = log P determination by HPLC on reversed-phase column (C18), EEC Directive 79/831 Annex V.A8, acidic (formic acid); type: physicochemical; conditions: HPLC method a), acetonitrile/water with formic acid
Experimental: ^1 The stated mass is the peak of the isotope pattern of the [M+H]^+ ion of the highest intensity; if the [M-H]^- ion was detected, the stated mass is identified with ^2. ^2 The stated mass is the peak of the isotope pattern of the [M-H]^- ion of the highest intensity. ^a) Note regarding the determination of the log P values and mass detection: The determination of the given log P values was carried out in accordance with EEC Directive 79/831 Annex V.A8 by HPLC (High Performance Liquid Chromatography) on a reversed-phase column (C18). […] Mass detection is effected by means of an […] system. ^b) Note regarding the determination of the retention time and mass detection: The stated retention times were determined on a reversed-phase column (C18) Shimadzu LCMS 2020; 50*3.0 Shimadzu shim-pack XR-ODS 2.2 micron; mobile phase A: water (0.05% TFA); mobile phase B: acetonitrile; linear gradient from 5% acetonitrile to 95% acetonitrile in 6.00 min, then 95% acetonitrile for a further 1.1 min; oven temperature 40° C.; flow rate: 1.0 ml/min. ^c) Note regarding the determination of the retention time and mass detection: Instrument: Waters ACQUITY SQD UPLC system; column. Waters Acquity UPLC HSS T3 1.8μ 50×1 mm; mobile phase A: 1 l of water+0.25 ml of 99% strength formic acid, mobile phase B: 1 l of acetonitrile+0.25 ml of 99% strength formic acid; gradient: 0.0 min 90% A→1.2 min 5% A→2.0 min 5% A oven: 50° C.; flow rate: 0.40 ml/min; UV detection: 208-400 nm. ^d) Note regarding the determination of the retention time and mass detection: […] The determination of the given log P values was carried out in accordance with EEC Directive 79/831 Annex V.A8 by HPLC (High Performance Liquid Chromatography) on a reversed-phase column (C18). […] Mass detection is effected by means of an […] system.

Ctenocephalides felis [2] = assay: Ctenocephalides felis in vitro contact test with adult cat fleas; type: in vivo; conditions: application rate 5 μg/cm^2 (500 g/ha), after 48 h, adult cat fleas dead or moribund
Experimental: (§1) For the coating of the test tubes, 9 mg of active compound are first dissolved in 1 ml of acetone p.a. and then diluted to the desired concentration with acetone p.a. 250 μl of the solution are distributed homogeneously on the inner walls and the base of a 25 ml test tube by turning and rocking on an orbital shaker (rocking rotation at 30 rpm for 2 h). With 900 ppm active compound solution and internal surface 44.7 cm^2, given homogeneous distribution, an area-based dose of 5 μg/cm^2 is achieved.
After the solvent has evaporated off, the tubes are populated with 5-10 adult cat fleas (Ctenocephalides felis), sealed with a perforated plastic lid and incubated in a horizontal position at room temperature and ambient humidity. After 48 h, efficacy is determined. To this end, the test tubes are stood upright and the fleas are knocked to the base of the tube. Fleas which remain motionless at the base or move in an uncoordinated manner are considered to be dead or moribund.
100% efficacy means that all the fleas were dead or moribund. 0% efficacy means that no fleas were harmed.

Amblyomma hebraeum = assay: Amblyomma hebaraeum test (AMBYHE), tick nymphs immersion; type: in vivo; conditions: 100 ppm, after 42 days
Experimental: (§2) Solvent: dimethyl sulphoxide
To produce a suitable active compound formulation, 10 mg of active compound are mixed with 0.5 ml of dimethyl sulphoxide, and the concentrate is diluted with water to the desired concentration.
Tick nymphs (Amblyomma hebraeum) are placed into perforated plastic beakers and immersed in the desired concentration for one minute. The ticks are transferred on filter paper into a Petri dish and stored in a climate-controlled cabinet.

[3] = tested on: cattle ticks (Boophilus microplus) Parkhurst strain, SP-resistant; assay: Boophilus microplus dip test; type: in vivo; conditions: 100 ppm, engorged adult female ticks, after 7 days
Experimental: Test animals: cattle ticks (Boophilus microplus) Parkhurst strain, SP-resistant
as §2
10 mg of active compound are dissolved in 0.5 ml of dimethyl sulphoxide. For the purpose of producing a suitable formulation, the active compound solution is diluted with water to the concentration desired in each case.
This active compound preparation is pipetted into tubes. 8-10 engorged adult female cattle ticks (Boophilus microplus) are transferred into a further tube with holes. The tube is immersed into the active compound preparation, and all the ticks are completely wetted. After the liquid has run out, the ticks are transferred on filter discs into plastic dishes and stored in a climate-controlled room.
(§3) Efficacy is assessed after 7 days by laying of fertile eggs. Eggs which are not visibly fertile are stored in a climate-controlled cabinet until the larvae hatch after about 42 days. An efficacy of 100% means that none of the ticks has laid any fertile eggs; 0% means that all the eggs are fertile.

Boophilus microplus = Boophilus microplus injection test; type: in vivo; conditions: 20 μg/animal, engorged adult female ticks, after 7 days
Experimental: as §2
1 μl of the active compound solution is injected into the abdomen of 5 engorged adult female cattle ticks (Boophilus microplus). The animals are transferred into dishes and kept in a climate-controlled room.
as §3

Ctenocephalides felis [4] = assay: Ctenocephalides felis oral test; type: in vivo; conditions: 100 ppm in citrated cattle blood, after 2 days
From the text: as §2
Dilution with citrated cattle blood gives the desired concentration.
About 20 unfed adult cat fleas (Ctenocephalides felis) are placed into a chamber which is closed at the top and bottom with gauze. A metal cylinder whose bottom end is closed with parafilm is placed onto the chamber. The cylinder contains the blood/active compound preparation, which can be imbibed by the fleas through the parafilm membrane.

Lucilia cuprina = Lucilia cuprina test; type: in vivo; conditions: 100 ppm, L1 larvae, after 2 days
Experimental: as §2
About 20 L1 larvae of the Australian sheep blowfly (Lucilia cuprina) are transferred into a test vessel containing minced horsemeat and the active compound preparation of the desired concentration.
After 2 days, the kill in % is determined.

Musca domestica = Musca domestica test; type: in vivo; conditions: 100 ppm, adult houseflies, after 2 days
From the text: as §2
Vessels containing a sponge treated with sugar solution and the active compound preparation of the desired concentration are populated with 10 adult houseflies (Musca domestica).

Spodoptera frugiperda = Spodoptera frugiperda spray test; type: in vivo; conditions: 100 g/ha, caterpillars on maize leaf discs, after 7 days
From the text: (§4) Solvent: 78.0 parts by weight of acetone

Tetranychus urticae [5] = assay: Tetranychus urticae spray test, OP-resistant (bean leaf discs); type: in vivo; conditions: 100 g/ha, after 6 days
Experimental: as §4
(§5) After 6 days, the efficacy in % is determined.

Phaedon cochleariae = Phaedon cochleariae spray test; conditions: 100 g/ha, larvae on Chinese cabbage leaf discs, after 7 days
Rhipicephalus sanguineus = Rhipicephalus sanguineus in vitro contact test with adult brown dog ticks; type: in vivo; conditions: application rate 5 μg/cm^2 (500 g/ha), after 48 h, adult ticks dead or moribund
Experimental: as §1
After the solvent has evaporated off, the tubes are populated with 5-10 adult dog ticks (Rhipicephalus sanguineus), sealed with a perforated plastic lid and incubated in a horizontal position in the dark at room temperature and ambient humidity. After 48 h, efficacy is determined. To this end, the ticks are knocked to the floor of the tube and incubated on a hotplate at 45-50° C. for not more than 5 min. Ticks which remain motionless on the floor or move in such an uncoordinated manner that they are unable to deliberately avoid the heat by climbing upwards are considered to be dead or moribund.
An efficacy of 100% means that all the ticks were dead or moribund. 0% efficacy means that none of the ticks had been harmed.

Myzus persicae = Myzus persicae spray test; type: in vivo; conditions: 100 g/ha, Chinese cabbage leaf discs, after 6 days
Experimental: Solvent: 78 parts by weight of acetone
as §5

Tetranychus urticae [6] = assay: Tetranychus urticae spray test, OP-resistant (bean plants); type: in vivo; conditions: 20 ppm, after 7 days

Row | Compound | chromatographic logP [1] | efficacy (Ctenocephalides felis [2]) | efficacy (kill in %) (Amblyomma hebraeum) | efficacy (laying of fertile eggs) [3] | efficacy (laying of fertile eggs) (Boophilus microplus) | efficacy (kill in %) (Ctenocephalides felis [4]) | efficacy (kill in %) (Lucilia cuprina) | efficacy (kill in %) (Musca domestica) | efficacy (Spodoptera frugiperda) | efficacy (Tetranychus urticae [5]) | efficacy (Phaedon cochleariae) | logP [1] | efficacy (Rhipicephalus sanguineus) | efficacy (Myzus persicae) | efficacy (Tetranychus urticae [6])
1 | Cn1nc(C(F)(F)C(F)(F)F)c(C(F)(F)F)c1-c1coc(-c2ccc(Cl)c(C(=O)NC3(C#N)CC3)c2)c1 [Iac-1, 2-chloro-N-(1-cyanocyclopropyl)-5-{4-[1-methyl-3-(pentafluoroethyl)-4-(trifluoromethyl)-1H-pyrazol-5-yl]-2-furyl}benzamide] | 4.02 | 100% | 100% | 100% | 100% | 100% | 100% | 100% | 100% | 100% | 100% | – | – | – | –
2 | Cn1nc(C(F)(F)C(F)(F)F)c(C(F)(F)F)c1-c1coc(-c2ccc(Cl)c(C(=O)NC3CC3)c2)c1 [Iac-3] | – | – | 100% | 100% | 100% | 100% | 100% | 100% | 100% | 100% | 100% | 4.08 | – | – | –
3 | Cn1nc(C(F)(F)C(F)(F)F)c(C(F)(F)F)c1-c1csc(-c2ccc(Cl)c(C(=O)NC3CC3)c2)c1 [Iaf-1] | – | 100% | 100% | 100% | 100% | 100% | 100% | – | 100% | 100% | 100% | 4.31 | 100% | 90% | –
4 | Cn1nc(C(F)(F)C(F)(F)F)c(C(F)(F)F)c1-c1cc(-c2ccc(Cl)c(C(=O)NC3CC3)c2)no1 [Iap-1, 2-chloro-N-cyclopropyl-5-{5-[1-methyl-3-(pentafluoroethyl)-4-(trifluoromethyl)-1H-pyrazol-5-yl]-1,2-oxazol-3-yl}benzamide] | 4.06 | 100% | 100% | 100% | 100% | 100% | 100% | 100% | 100% | – | 100% | – | 100% | – | 100%
5 | Cn1nc(C(F)(F)C(F)(F)F)c(C(F)(F)F)c1-c1cc(-c2ccc(Cl)c(C(=O)NC3(C#N)CC3)c2)no1 [Iap-3] | – | 100% | – | – | 100% | 100% | 100% | 100% | 100% | 100% | 100% | 3.96 | 100% | – | –
